From ChEMBL document CHEMBL1201861, “Genomics of Drug Sensitity in Cancer screening data, Wellcome Trust Sanger Institute”
pIC50: −log10 of the molar value.

Legend:
MHH-CALL-2 = experiment: cells; format: functional, cell-based; conditions: Homo sapiens;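 also: growth inhibition of the cell line, read out in a cell viability assay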
Description: SANGER: Inhibition of human MHH-CALL-2 cell growth in a cell viability assay.

LoVo = experiment: cells; format: functional, cell-based; conditions: Homo sapiens;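 also: growth inhibition of human LoVo cells, read out with a cell viability assay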
Description: SANGER: Inhibition of human LoVo cell growth in a cell viability assay.

NCI-H1651 = experiment: cells; format: functional, cell-based; conditions: Homo sapiens;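 also: Read-out is a cell viability assay, with IC50 expressing inhibition of NCI-H1651 cell growth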
Description: SANGER: Inhibition of human NCI-H1651 cell growth in a cell viability assay.

OE19 = experiment: cells; format: functional, cell-based; conditions: Homo sapiens;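 also: growth inhibition of OE19 cells, measured through a cell viability read-out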
Description: SANGER: Inhibition of human OE19 cell growth in a cell viability assay.

SNU-423 = experiment: cells; format: functional, cell-based; conditions: Homo sapiens
Description: SANGER: Inhibition of human SNU-423 cell growth in a cell viability assay.

SCC-4 = experiment: cells; format: functional, cell-based; conditions: Homo sapiens;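 also: growth inhibition of human SCC-4 cells, read out as cell viability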
Description: SANGER: Inhibition of human SCC-4 cell growth in a cell viability assay.

EFO-27 = experiment: cells; format: functional, cell-based; conditions: Homo sapiens;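 also: growth inhibition of EFO-27 cells, read out with a cell viability assay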
Description: SANGER: Inhibition of human EFO-27 cell growth in a cell viability assay.

IM-9 = experiment: SANGER: Inhibition of human IM-9 cell growth in a cell viability assay.; format: functional, cell-based
M059J = experiment: cells; format: functional, cell-based; conditions: Homo sapiens;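 also: growth inhibition of M059J cells, read out with a cell viability assay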
Description: SANGER: Inhibition of human M059J cell growth in a cell viability assay.

L-540 = experiment: cells; format: functional, cell-based; conditions: Homo sapiens;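 also: growth inhibition of the human L-540 cell line, read out with a viability assay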
Description: SANGER: Inhibition of human L-540 cell growth in a cell viability assay.

SW948 = experiment: cells; format: functional, cell-based; conditions: Homo sapiens;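 also: growth inhibition of SW948 cells, read out with a cell viability assay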
Description: SANGER: Inhibition of human SW948 cell growth in a cell viability assay.

NCI-H1618 = experiment: cells; format: functional, cell-based; conditions: Homo sapiens;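 also: growth inhibition of human NCI-H1618 cells, measured by a cell viability assay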
Description: SANGER: Inhibition of human NCI-H1618 cell growth in a cell viability assay.

KMS-12-PE = experiment: cells; format: functional, cell-based; conditions: Homo sapiens;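 also: growth inhibition of human KMS-12-PE cells, measured with a cell viability assay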
Description: SANGER: Inhibition of human KMS-12-PE cell growth in a cell viability assay.

DG-75 = experiment: cells; format: functional, cell-based; conditions: Homo sapiens;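 also: growth inhibition of DG-75 cells, read out with a cell viability assay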
Description: SANGER: Inhibition of human DG-75 cell growth in a cell viability assay.

CAL-72 = experiment: cells; format: functional, cell-based; conditions: Homo sapiens;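 also: cell viability assay measuring inhibition of proliferation in the CAL-72 cell line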
Description: SANGER: Inhibition of human CAL-72 cell growth in a cell viability assay.

NCI-H1417 = experiment: cells; format: functional, cell-based; conditions: Homo sapiens;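 also: human NCI-H1417 cells, growth inhibition determined with a cell viability readout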
Description: SANGER: Inhibition of human NCI-H1417 cell growth in a cell viability assay.

SW1573 = experiment: cells; format: functional, cell-based; conditions: Homo sapiens;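 also: growth inhibition of SW1573 cells, read out with a cell viability assay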
Description: SANGER: Inhibition of human SW1573 cell growth in a cell viability assay.

D-392MG = experiment: cells; format: functional, cell-based; conditions: Homo sapiens
HCC1395 = experiment: cells; format: functional, cell-based; conditions: Homo sapiens;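 also: growth inhibition of HCC1395 cells, read out by a cell viability assay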
Description: SANGER: Inhibition of human HCC1395 cell growth in a cell viability assay.

LCLC-103H cell line = experiment: cells; format: functional, cell-based; conditions: Homo sapiens
Description: SANGER: Inhibition of human LCLC-103H cell growth in a cell viability assay.

NCI-H719 = experiment: cells; format: functional, cell-based; conditions: Homo sapiens;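 also: growth inhibition of the cultured cell line, read out with a viability assay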
Description: SANGER: Inhibition of human NCI-H719 cell growth in a cell viability assay.

NCI-H1963 = experiment: cells; format: functional, cell-based; conditions: Homo sapiens;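 also: cell growth inhibition of the human line, determined with a cell viability assay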
Description: SANGER: Inhibition of human NCI-H1963 cell growth in a cell viability assay.

SN12C = experiment: cells; format: functional, cell-based; conditions: Homo sapiens;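 also: growth inhibition of human SN12C cells, measured by a cell viability assay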
Description: SANGER: Inhibition of human SN12C cell growth in a cell viability assay.

COR-L105 = experiment: cells; format: functional, cell-based; conditions: Homo sapiens
Description: SANGER: Inhibition of human COR-L105 cell growth in a cell viability assay.

HPAF-II = experiment: cells; format: functional, cell-based; conditions: Homo sapiens;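 also: growth inhibition of HPAF-II cells, read out with a cell viability assay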
Description: SANGER: Inhibition of human HPAF-II cell growth in a cell viability assay.

MC-CAR = experiment: cells; format: functional, cell-based; conditions: Homo sapiens;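 also: growth inhibition of the human MC-CAR cell line, read out by a cell viability assay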
Description: SANGER: Inhibition of human MC-CAR cell growth in a cell viability assay.

LB996-RCC = experiment: cells; format: functional, cell-based; conditions: Homo sapiens
Description: SANGER: Inhibition of human LB996-RCC cell growth in a cell viability assay.

HuO-3N1 = experiment: cells; format: functional, cell-based; conditions: Homo sapiens;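 also: cell viability readout used to measure how strongly compounds suppress proliferation of human HuO-3N1 cells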
Description: SANGER: Inhibition of human HuO-3N1 cell growth in a cell viability assay.

U-698-M = experiment: cells; format: functional, cell-based; conditions: Homo sapiens
Description: SANGER: Inhibition of human U-698-M cell growth in a cell viability assay.

SK-N-AS = experiment: cells; format: functional, cell-based; conditions: Homo sapiens;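 also: growth inhibition of human SK-N-AS cells, measured with a cell viability assay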
Description: SANGER: Inhibition of human SK-N-AS cell growth in a cell viability assay.

ChaGo-K-1 = experiment: cells; format: functional, cell-based; conditions: Homo sapiens;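 also: growth inhibition of ChaGo-K-1 cells, read out with a cell viability assay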
Description: SANGER: Inhibition of human ChaGo-K-1 cell growth in a cell viability assay.

NCI-H1792 = experiment: cells; format: functional, cell-based; conditions: Homo sapiens;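 also: growth inhibition of human NCI-H1792 cells, read out as cell viability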
Description: SANGER: Inhibition of human NCI-H1792 cell growth in a cell viability assay.

SBC-5 = experiment: cells; format: functional, cell-based; conditions: Homo sapiens;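 also: cell viability assay read-out, IC50 is the concentration that inhibits growth of the cells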
Description: SANGER: Inhibition of human SBC-5 cell growth in a cell viability assay.

SW837 = experiment: cells; format: functional, cell-based; conditions: Homo sapiens;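 also: growth inhibition of SW837 cells, determined with a cell viability assay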
Description: SANGER: Inhibition of human SW837 cell growth in a cell viability assay.

HOS = experiment: cells; format: functional, cell-based; conditions: Homo sapiens;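 also: growth inhibition of human HOS cells, read out with a cell viability assay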
Description: SANGER: Inhibition of human HOS cell growth in a cell viability assay.

IGR-1 = experiment: cells; format: functional, cell-based; conditions: Homo sapiens;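 also: growth inhibition of human IGR-1 cells, read out with a cell viability assay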
Description: SANGER: Inhibition of human IGR-1 cell growth in a cell viability assay.

D-542MG = experiment: cells; format: functional, cell-based; conditions: Homo sapiens
Description: SANGER: Inhibition of human D-542MG cell growth in a cell viability assay.

NCI-H810 = experiment: cells; format: functional, cell-based; conditions: Homo sapiens;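 also: IC50 reflects inhibition of cancer cell line growth, read out with a cell viability assay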
Description: SANGER: Inhibition of human NCI-H810 cell growth in a cell viability assay.

SW756 = experiment: cells; format: functional, cell-based; conditions: Homo sapiens;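 also: growth inhibition of human SW756 cells, read out with a cell viability assay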
Description: SANGER: Inhibition of human SW756 cell growth in a cell viability assay.

NCI-H524 = experiment: cells; format: functional, cell-based; conditions: Homo sapiens;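 also: growth inhibition of human NCI-H524 cells, read out through a cell viability assay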
Description: SANGER: Inhibition of human NCI-H524 cell growth in a cell viability assay.

P31-FUJ = experiment: cells; format: functional, cell-based; conditions: Homo sapiens;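 also: growth inhibition of P31-FUJ cells, read out with a viability assay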
Description: SANGER: Inhibition of human P31-FUJ cell growth in a cell viability assay.

NCI-H322M = experiment: cells; format: functional, cell-based; conditions: Homo sapiens;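 also: cell viability assay measuring inhibition of growth of human NCI-H322M cells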
Description: SANGER: Inhibition of human NCI-H322M cell growth in a cell viability assay.

HCC1954 = experiment: cells; format: functional, cell-based; conditions: Homo sapiens;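 also: growth inhibition of human HCC1954 cells, read out with a cell viability assay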
Description: SANGER: Inhibition of human HCC1954 cell growth in a cell viability assay.

S-117 = experiment: cells; format: functional, cell-based; conditions: Homo sapiens
Description: SANGER: Inhibition of human S-117 cell growth in a cell viability assay.

NCI-H889 = experiment: cells; format: functional, cell-based; conditions: Homo sapiens;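 also: cell growth inhibition of the cell line, read out with a viability assay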
Description: SANGER: Inhibition of human NCI-H889 cell growth in a cell viability assay.

ABC-1 = experiment: cells; format: functional, cell-based; conditions: Homo sapiens;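 also: growth inhibition of human ABC-1 cells, read out by a cell viability assay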
Description: SANGER: Inhibition of human ABC-1 cell growth in a cell viability assay.

EHEB = experiment: cells; format: functional, cell-based; conditions: Homo sapiens;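 also: growth inhibition of human EHEB cells, read out with a cell viability assay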
Description: SANGER: Inhibition of human EHEB cell growth in a cell viability assay.

HT1197 = experiment: cells; format: functional, cell-based, HT-1197; conditions: Homo sapiens
Description: SANGER: Inhibition of human HT-1197 cell growth in a cell viability assay.

CAL-27 = experiment: cells; format: functional, cell-based; conditions: Homo sapiens;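 also: Viability-based readout, IC50 reflecting inhibition of CAL-27 cell growth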
Description: SANGER: Inhibition of human CAL-27 cell growth in a cell viability assay.

A-431 = experiment: cells; format: functional, cell-based; conditions: Homo sapiens;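 also: growth inhibition of A-431 cells, determined with a cell viability read-out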
Description: SANGER: Inhibition of human A431 cell growth in a cell viability assay.

HCC1419 = experiment: cells; format: functional, cell-based; conditions: Homo sapiens;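 also: growth inhibition of human HCC1419 cells, read out as cell viability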
Description: SANGER: Inhibition of human HCC1419 cell growth in a cell viability assay.

SCLC-21H = experiment: cells; format: functional, cell-based; conditions: Homo sapiens;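 also: growth inhibition of cultured human SCLC-21H cells, read out with a cell viability assay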
Description: SANGER: Inhibition of human SCLC-21H cell growth in a cell viability assay.

SNU-C1 = experiment: cells; format: functional, cell-based; conditions: Homo sapiens;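 also: growth inhibition of SNU-C1 human cells, read out by a cell viability assay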
Description: SANGER: Inhibition of human SNU-C1 cell growth in a cell viability assay.

HOP-92 = experiment: cells; format: functional, cell-based; conditions: Homo sapiens;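 also: cell viability readout, with IC50 reflecting inhibition of HOP-92 cell growth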
Description: SANGER: Inhibition of human HOP-92 cell growth in a cell viability assay.

CHP-126 = experiment: cells; format: functional, cell-based; conditions: Homo sapiens
Description: SANGER: Inhibition of human CHP-126 cell growth in a cell viability assay.

LOUCY = experiment: cells; format: functional, cell-based; conditions: Homo sapiens;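 also: growth inhibition of human LOUCY cells, read out with a cell viability assay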
Description: SANGER: Inhibition of human LOUCY cell growth in a cell viability assay.

U-251 = experiment: cells; format: functional, cell-based; conditions: Homo sapiens;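 also: growth inhibition of human U-251 cells, read out through a cell viability assay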
Description: SANGER: Inhibition of human U251 cell growth in a cell viability assay.

A253 cell line = experiment: cells; format: functional, cell-based; conditions: Homo sapiens;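 also: growth inhibition of A253 cells, read out with a cell viability assay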
Description: SANGER: Inhibition of human A253 cell growth in a cell viability assay.

NCI-H187 = experiment: cells; format: functional, cell-based; conditions: Homo sapiens;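 also: growth inhibition of NCI-H187 cells, read out as cell viability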
Description: SANGER: Inhibition of human NCI-H187 cell growth in a cell viability assay.

CO[C@@]12[C@H](COC(N)=O)C3=C(C(=O)C(C)=C(N)C3=O)N1C[C@@H]1N[C@@H]12 [MITOMYCIN] gave a pIC50 (MHH-CALL-2) of over 7.20, a pIC50 (LoVo) of 6.37 and a pIC50 (NCI-H1651) of over 7.20. For the same compound, the pIC50 (OE19) was 6.44, the pIC50 (SNU-423) was 5.82 and the pIC50 (SCC-4) was 6.41. For the same compound, the pIC50 (EFO-27) was 5.95, the pIC50 (IM-9) was 7.25 and the pIC50 (M059J) was 7.00. It also gave a pIC50 (L-540) of 7.02, a pIC50 (SW948) of 5.43 and a pIC50 (NCI-H1618) of 6.93. It also gave a pIC50 (KMS-12-PE) of 5.42, a pIC50 (DG-75) of 5.20 and a pIC50 (CAL-72) of under 4.80. It also gave a pIC50 (NCI-H1417) of 6.63, a pIC50 (SW1573) of 6.84 and a pIC50 (D-392MG) of 5.17. The pIC50 (HCC1395) was 5.98, the pIC50 (LCLC-103H cell line) was 6.34 and the pIC50 (NCI-H719) was 7.45. It also gave a pIC50 (NCI-H1963) of 6.01, a pIC50 (SN12C) of 5.46 and a pIC50 (COR-L105) of 5.79. The pIC50 (HPAF-II) was 5.96, the pIC50 (MC-CAR) was 6.79 and the pIC50 (LB996-RCC) was 7.75. The pIC50 (HuO-3N1) was 5.19, the pIC50 (U-698-M) was 5.80 and the pIC50 (SK-N-AS) was 5.75. For the same compound, the pIC50 (ChaGo-K-1) was 5.72, the pIC50 (NCI-H1792) was 6.16 and the pIC50 (SBC-5) was over 7.20. For the same compound, the pIC50 (SW837) was 6.56, the pIC50 (HOS) was 6.97 and the pIC50 (IGR-1) was 6.49. For the same compound, the pIC50 (D-542MG) was 6.22, the pIC50 (NCI-H810) was 6.60 and the pIC50 (SW756) was 6.22. The pIC50 (NCI-H524) was 5.57, the pIC50 (P31-FUJ) was 5.46 and the pIC50 (NCI-H322M) was 5.74. The pIC50 (HCC1954) was 5.64, the pIC50 (S-117) was 6.23 and the pIC50 (NCI-H889) was 5.60. The pIC50 (ABC-1) was 7.21, the pIC50 (EHEB) was 6.17 and the pIC50 (HT1197) was 5.69. It also gave a pIC50 (CAL-27) of 7.39, a pIC50 (A-431) of 7.36 and a pIC50 (HCC1419) of 5.46. For the same compound, the pIC50 (SCLC-21H) was 6.02, the pIC50 (SNU-C1) was 5.72 and the pIC50 (HOP-92) was 5.71. The pIC50 (CHP-126) was 7.14, the pIC50 (LOUCY) was 7.58 and the pIC50 (U-251) was 6.89. The pIC50 (A253 cell line) was 6.46 and the pIC50 (NCI-H187) was 6.15.
Compound C/C(O)=C(\C#N)C(=O)Nc1cc(Br)ccc1Br has a pIC50 (MHH-CALL-2) of under 4.80, a pIC50 (LoVo) of under 4.80 and a pIC50 (NCI-H1651) of under 4.80. The pIC50 (OE19) was under 4.80, the pIC50 (SNU-423) was under 4.80 and the pIC50 (SCC-4) was under 4.80. For the same compound, the pIC50 (EFO-27) was under 4.80, the pIC50 (IM-9) was under 4.80 and the pIC50 (M059J) was under 4.80. It also gave a pIC50 (L-540) of under 4.80, a pIC50 (SW948) of under 4.80 and a pIC50 (NCI-H1618) of under 4.80. It also gave a pIC50 (KMS-12-PE) of under 4.80, a pIC50 (DG-75) of under 4.80 and a pIC50 (CAL-72) of under 4.80. It also gave a pIC50 (NCI-H1417) of under 4.80, a pIC50 (SW1573) of under 4.80 and a pIC50 (D-392MG) of under 4.80. For the same compound, the pIC50 (HCC1395) was under 4.80, the pIC50 (LCLC-103H cell line) was under 4.80 and the pIC50 (NCI-H719) was under 4.80. It also gave a pIC50 (NCI-H1963) of under 4.80, a pIC50 (SN12C) of under 4.80 and a pIC50 (COR-L105) of under 4.80. It also gave a pIC50 (HPAF-II) of under 4.80, a pIC50 (MC-CAR) of under 4.80 and a pIC50 (LB996-RCC) of under 4.80. It also gave a pIC50 (HuO-3N1) of under 4.80, a pIC50 (U-698-M) of under 4.80 and a pIC50 (SK-N-AS) of under 4.80. It also gave a pIC50 (ChaGo-K-1) of under 4.80, a pIC50 (NCI-H1792) of under 4.80 and a pIC50 (SBC-5) of under 4.80. For the same compound, the pIC50 (SW837) was under 4.80, the pIC50 (HOS) was under 4.80 and the pIC50 (IGR-1) was under 4.80. For the same compound, the pIC50 (D-542MG) was under 4.80, the pIC50 (NCI-H810) was under 4.80 and the pIC50 (SW756) was under 4.80. It also gave a pIC50 (NCI-H524) of under 4.80, a pIC50 (P31-FUJ) of under 4.80 and a pIC50 (NCI-H322M) of under 4.80. It also gave a pIC50 (HCC1954) of under 4.80, a pIC50 (S-117) of under 4.80 and a pIC50 (NCI-H889) of under 4.80. The pIC50 (ABC-1) was under 4.80, the pIC50 (EHEB) was under 4.80 and the pIC50 (HT1197) was under 4.80. For the same compound, the pIC50 (CAL-27) was under 4.80, the pIC50 (A-431) was under 4.80 and the pIC50 (HCC1419) was under 4.80. The pIC50 (SCLC-21H) was under 4.80, the pIC50 (SNU-C1) was under 4.80 and the pIC50 (HOP-92) was under 4.80. The pIC50 (CHP-126) was under 4.80, the pIC50 (U-251) was under 4.80 and the pIC50 (A253 cell line) was under 4.80. The pIC50 (NCI-H187) was under 4.80.
